Test results taken from patent US8653095B2, “Small molecules with antimalarial activity” (Radix Pharmaceuticals, Inc., priority 2011, dated 2014).
Where “and” joins values, the source holds several entries; their conditions need not be identical. Equal entries are not always repeated. Where two headings read alike, the source gives them in different places.

What was measured:
in vivo = settings: Sprague-Dawley, rat, po; for MTD at 2 weeks: MTD (maximum tolerated dose)
[1] = system: Plasmodium cynomolgi sporozoite; assay: Causal prophylactic activity in P. cynomolgi sporozoite-challenged Rhesus monkeys; assay type: in vivo; settings: PO, 15 mg/kg, 1 daily for 3 days, one value per monkey
From the text: Two monkeys were used in each test group. The control animals developed parasitemia in about 10 days after inoculation of about 1×10^6 P. cynomolgi sporozoites harvested from Anopheles dirus. All the monkeys received three treatments, once a day for three consecutive days beginning a day before (−1, 0,+1) the sporozoites challenge. The control monkeys (group 1) received HECT and the experimental animals received testing compound by using 8 Fr., 15-in. long nasogastric tubes.

P. berghei NK-65 = assay: In vivo efficacy in Swiss mice infected with P. berghei; settings: Plasmodium berghei
[2] = system: Liver stage of P. yoelii yoelii; assay: In vitro liver-stage antimalarial efficacy evaluation; assay type: cell-based; settings: Plasmodium yoelii
Protocol: In Vitro Liver-Stage Antimalarial Efficacy Evaluation. Any new desirable antimalarial drug should be broad spectrum: it should be active against both the blood stage and the liver stage of the parasite. New compounds were assessed on the Plasmodium yoelii liver stage in vitro. The liver stage of P. yoelii is a parasite of rodent extensively used as an experimental model for studying the initial phase of the malaria infection.

rodent P. berghei = settings: for Primary therapeutic index / Secondary therapeutic index: Sprague-Dawley, rat, in vivo, po; for MCureD (minimum curative dose): rodent P. berghei, administered orally
Protocol: Antimalarial potency was measured by determination of the MCD (minimum clearance dose), a commonly used efficacy measurement. The primary therapeutic indices, which were obtained by using the MCDs as the effective parameters, were calculated. A secondary therapeutic indices measure of antimalarial potency was determined by use of the dose for the MCureD (minimum curative dose).

[3] = 96 h, P. berghei NK-65, Swiss mice, oral once daily for 4 days, read-out: ED50
[4] = read-out: ED50 (the dose leading to 50% parasite growth inhibition compared to the blank control)

Compound	NOAEL at 2 weeks (in vivo) [mg/kg/day]	MTD at 2 weeks (in vivo) [mg/kg]	Parasite patency (days postinoculation) [1]	ED50 (P. berghei NK-65; [3]) [mg/kg]	ED50 (P. berghei NK-65; [4]) [mg/kg]	IC50 [2] [nM]	Primary therapeutic index (rodent P. berghei)	Secondary therapeutic index (rodent P. berghei)	MCureD (minimum curative dose) (rodent P. berghei) [mg/kg]
CC[C@@H](N)[C@H](O)[C@H](O)[C@H](COC)[C@@H]1CC[C@@]23CC24c2nc5ccc(OC)cc5cc2C(=O)N[C@H]4CN13 (stereo partly drawn) [Formula B]	> 100	> 500	41 days and 55 days	0.13	< 1	5.8	237	53	14.2
COC[C@@H]([C@@H](O)[C@@H](O)[C@H](N)Cc1ccccc1)[C@@H]1CC[C@@]23CC24c2nc5ccc(OC)cc5cc2C(=O)N[C@H]4CN13 (stereo partly drawn) [Formula C]	> 100	> 500	48 days and 64 days	0.11	< 1	7.1	290	72	9.82
